Measured values published in paper PMC5762315, “Inhibition of polo-like kinase 4 (PLK4): a new therapeutic option for rhabdoid tumors and pediatric medulloblastoma” (Oncotarget, 2017).
Values joined by “and” are separate entries in the source; they are usually repeats but may differ in a detail not shown here. Equal entries are not always repeated.

What was measured:
Assay in all cases: biochemical
Assay type in all cases: biochemical
various kinases [1] = biological target: various kinases (Homo sapiens, UniProt Q05397); settings: kinase PTK2 (FAK); ZLYTE
various kinases [2] = biological target: various kinases (Homo sapiens, UniProt Q14289); settings: kinase PTK2B (FAK2); ZLYTE
various kinases [3] = biological target: T1, various kinases (Homo sapiens, UniProt P43403); settings: kinase ZAP70; ZLYTE
T1 sequence (P43403 1-619): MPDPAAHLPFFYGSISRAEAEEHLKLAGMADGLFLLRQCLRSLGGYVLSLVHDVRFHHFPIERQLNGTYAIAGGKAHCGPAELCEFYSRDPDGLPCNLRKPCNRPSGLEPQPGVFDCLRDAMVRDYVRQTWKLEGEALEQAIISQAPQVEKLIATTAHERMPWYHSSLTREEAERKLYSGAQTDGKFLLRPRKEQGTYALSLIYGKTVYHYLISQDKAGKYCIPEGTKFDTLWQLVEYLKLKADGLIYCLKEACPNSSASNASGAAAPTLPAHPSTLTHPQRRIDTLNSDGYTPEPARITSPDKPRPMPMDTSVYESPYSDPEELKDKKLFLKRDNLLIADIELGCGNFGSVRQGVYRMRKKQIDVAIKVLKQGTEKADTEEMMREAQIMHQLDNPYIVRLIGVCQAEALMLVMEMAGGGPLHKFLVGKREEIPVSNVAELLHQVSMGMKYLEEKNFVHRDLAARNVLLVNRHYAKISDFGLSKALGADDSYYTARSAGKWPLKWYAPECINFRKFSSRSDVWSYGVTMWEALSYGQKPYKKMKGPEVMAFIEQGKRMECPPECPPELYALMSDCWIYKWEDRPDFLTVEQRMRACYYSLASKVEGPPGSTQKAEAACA

various kinases [4] = biological target: various kinases (Homo sapiens, UniProt Q8N4C8); settings: MINK1
various kinases [5] = biological target: various kinases (Homo sapiens, UniProt P16234, D842V); settings: PDGFRA D842V
various kinases [6] = biological target: various kinases (Homo sapiens, UniProt Q9UPE1); settings: kinase STK23 (MSSK1); ZLYTE
various kinases [7] = biological target: various kinases (Homo sapiens, UniProt Q13153); settings: PAK1
various kinases [8] = biological target: T2, various kinases (Homo sapiens, UniProt Q9BZL6); settings: kinase PRKD2 (PKD2); ZLYTE
T2 sequence (Q9BZL6 1-878): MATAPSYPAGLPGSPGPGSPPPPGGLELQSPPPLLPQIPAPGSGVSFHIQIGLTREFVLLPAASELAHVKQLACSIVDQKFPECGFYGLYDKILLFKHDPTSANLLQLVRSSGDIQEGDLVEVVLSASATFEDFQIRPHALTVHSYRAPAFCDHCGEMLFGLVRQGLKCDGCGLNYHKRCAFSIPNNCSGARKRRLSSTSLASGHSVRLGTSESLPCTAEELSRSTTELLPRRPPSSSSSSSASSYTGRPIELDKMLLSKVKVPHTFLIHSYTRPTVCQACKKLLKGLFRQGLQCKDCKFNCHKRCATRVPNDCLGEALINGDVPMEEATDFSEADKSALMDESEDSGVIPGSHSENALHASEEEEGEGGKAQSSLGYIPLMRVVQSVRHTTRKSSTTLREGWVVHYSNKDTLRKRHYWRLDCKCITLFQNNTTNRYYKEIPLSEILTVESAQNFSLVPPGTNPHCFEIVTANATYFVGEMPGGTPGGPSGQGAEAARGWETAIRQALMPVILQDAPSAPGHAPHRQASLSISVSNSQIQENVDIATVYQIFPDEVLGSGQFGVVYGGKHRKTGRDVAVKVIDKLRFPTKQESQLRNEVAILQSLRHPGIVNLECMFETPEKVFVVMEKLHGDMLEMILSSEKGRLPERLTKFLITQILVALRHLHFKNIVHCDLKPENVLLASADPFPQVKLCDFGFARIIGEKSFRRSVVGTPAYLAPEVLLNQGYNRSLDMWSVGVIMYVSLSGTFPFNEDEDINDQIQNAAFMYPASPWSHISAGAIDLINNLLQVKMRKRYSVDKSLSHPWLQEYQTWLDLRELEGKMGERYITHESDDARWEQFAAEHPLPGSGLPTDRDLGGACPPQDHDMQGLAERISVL

various kinases [9] = biological target: various kinases (Homo sapiens, UniProt P29597); settings: kinase TYK2; ZLYTE
various kinases [10] = biological target: various kinases (Homo sapiens, UniProt Q9H2X6); settings: HIPK2
various kinases [11] = biological target: various kinases (Homo sapiens, UniProt P07949, V804E); settings: kinase RET V804E; ZLYTE
various kinases [12] = biological target: various kinases (Homo sapiens, UniProt Q9H3Y6); settings: kinase SRMS (Srm); ZLYTE
various kinases (Homo sapiens, UniProt Q9H3Y6), sequence (Q9H3Y6 whole entry): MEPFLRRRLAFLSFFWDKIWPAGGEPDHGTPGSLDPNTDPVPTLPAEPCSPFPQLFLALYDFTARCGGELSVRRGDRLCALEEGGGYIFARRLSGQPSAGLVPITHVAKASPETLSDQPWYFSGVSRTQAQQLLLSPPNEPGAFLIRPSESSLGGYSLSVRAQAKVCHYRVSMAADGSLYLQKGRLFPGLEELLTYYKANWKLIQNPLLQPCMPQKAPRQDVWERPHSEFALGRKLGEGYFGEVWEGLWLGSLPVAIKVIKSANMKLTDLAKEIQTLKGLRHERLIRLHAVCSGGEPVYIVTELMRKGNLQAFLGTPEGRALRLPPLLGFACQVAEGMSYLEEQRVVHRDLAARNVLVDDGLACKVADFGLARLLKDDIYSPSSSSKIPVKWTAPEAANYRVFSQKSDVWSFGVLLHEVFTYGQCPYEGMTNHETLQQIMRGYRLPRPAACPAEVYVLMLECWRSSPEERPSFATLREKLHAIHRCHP

various kinases (Homo sapiens, UniProt Q05397), sequence (Q05397 whole entry): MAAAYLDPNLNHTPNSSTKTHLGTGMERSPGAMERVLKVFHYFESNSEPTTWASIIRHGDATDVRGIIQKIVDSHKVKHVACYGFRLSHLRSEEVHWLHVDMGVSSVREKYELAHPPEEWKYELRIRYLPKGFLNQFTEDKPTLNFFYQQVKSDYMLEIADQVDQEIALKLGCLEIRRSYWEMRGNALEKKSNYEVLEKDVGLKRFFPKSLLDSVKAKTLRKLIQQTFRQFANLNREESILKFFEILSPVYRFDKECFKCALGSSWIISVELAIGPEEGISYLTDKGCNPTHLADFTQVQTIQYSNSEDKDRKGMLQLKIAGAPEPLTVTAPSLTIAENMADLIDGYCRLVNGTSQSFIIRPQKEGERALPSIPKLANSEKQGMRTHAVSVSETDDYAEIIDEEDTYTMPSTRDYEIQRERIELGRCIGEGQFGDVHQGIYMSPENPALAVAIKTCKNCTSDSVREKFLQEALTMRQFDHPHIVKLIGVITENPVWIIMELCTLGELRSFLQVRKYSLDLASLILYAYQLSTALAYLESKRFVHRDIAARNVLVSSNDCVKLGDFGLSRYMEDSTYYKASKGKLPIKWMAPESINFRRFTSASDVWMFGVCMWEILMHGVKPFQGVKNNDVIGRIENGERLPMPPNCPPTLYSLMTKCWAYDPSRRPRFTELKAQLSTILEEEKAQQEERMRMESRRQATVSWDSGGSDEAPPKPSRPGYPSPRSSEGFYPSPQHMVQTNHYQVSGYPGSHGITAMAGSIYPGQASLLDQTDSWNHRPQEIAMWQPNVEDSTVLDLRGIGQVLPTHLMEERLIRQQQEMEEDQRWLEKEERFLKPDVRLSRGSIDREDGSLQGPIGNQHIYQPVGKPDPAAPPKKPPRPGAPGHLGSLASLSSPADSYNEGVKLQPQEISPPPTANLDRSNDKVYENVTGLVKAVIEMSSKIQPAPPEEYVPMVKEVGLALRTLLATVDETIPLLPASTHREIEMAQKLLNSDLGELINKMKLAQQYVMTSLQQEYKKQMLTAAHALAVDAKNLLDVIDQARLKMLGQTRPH
various kinases (Homo sapiens, UniProt P29597), sequence (P29597 whole entry): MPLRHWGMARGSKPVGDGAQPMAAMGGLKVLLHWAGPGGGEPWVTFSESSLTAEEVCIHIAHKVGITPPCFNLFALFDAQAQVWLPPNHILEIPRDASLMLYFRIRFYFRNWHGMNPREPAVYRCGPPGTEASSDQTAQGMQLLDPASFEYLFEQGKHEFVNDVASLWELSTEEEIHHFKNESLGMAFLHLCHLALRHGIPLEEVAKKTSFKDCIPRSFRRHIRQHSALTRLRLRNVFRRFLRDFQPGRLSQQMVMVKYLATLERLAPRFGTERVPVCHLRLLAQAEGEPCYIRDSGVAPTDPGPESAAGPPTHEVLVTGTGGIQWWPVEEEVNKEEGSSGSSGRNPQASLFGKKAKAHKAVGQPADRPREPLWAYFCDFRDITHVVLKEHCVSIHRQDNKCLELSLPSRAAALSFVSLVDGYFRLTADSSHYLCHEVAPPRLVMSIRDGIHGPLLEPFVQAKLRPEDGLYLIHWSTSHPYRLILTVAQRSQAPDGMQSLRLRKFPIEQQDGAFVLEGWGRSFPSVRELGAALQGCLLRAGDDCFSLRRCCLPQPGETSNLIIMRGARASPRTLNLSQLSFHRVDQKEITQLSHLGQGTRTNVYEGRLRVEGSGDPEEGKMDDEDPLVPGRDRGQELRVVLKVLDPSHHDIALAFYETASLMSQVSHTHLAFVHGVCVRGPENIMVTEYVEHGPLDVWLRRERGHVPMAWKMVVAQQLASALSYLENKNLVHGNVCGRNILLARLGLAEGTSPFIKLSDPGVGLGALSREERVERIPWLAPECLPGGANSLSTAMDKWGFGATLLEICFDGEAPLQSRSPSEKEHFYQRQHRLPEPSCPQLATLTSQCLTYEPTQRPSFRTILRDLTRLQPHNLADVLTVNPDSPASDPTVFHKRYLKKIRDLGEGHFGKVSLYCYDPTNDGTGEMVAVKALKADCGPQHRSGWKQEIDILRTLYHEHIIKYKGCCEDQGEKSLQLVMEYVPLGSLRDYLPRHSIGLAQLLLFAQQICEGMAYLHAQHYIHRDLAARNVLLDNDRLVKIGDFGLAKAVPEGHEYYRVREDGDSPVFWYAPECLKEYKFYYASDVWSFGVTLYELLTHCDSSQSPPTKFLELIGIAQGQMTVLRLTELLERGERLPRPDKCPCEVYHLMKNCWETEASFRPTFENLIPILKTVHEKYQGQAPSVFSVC
various kinases (Homo sapiens, UniProt Q9UPE1), sequence (Q9UPE1 whole entry): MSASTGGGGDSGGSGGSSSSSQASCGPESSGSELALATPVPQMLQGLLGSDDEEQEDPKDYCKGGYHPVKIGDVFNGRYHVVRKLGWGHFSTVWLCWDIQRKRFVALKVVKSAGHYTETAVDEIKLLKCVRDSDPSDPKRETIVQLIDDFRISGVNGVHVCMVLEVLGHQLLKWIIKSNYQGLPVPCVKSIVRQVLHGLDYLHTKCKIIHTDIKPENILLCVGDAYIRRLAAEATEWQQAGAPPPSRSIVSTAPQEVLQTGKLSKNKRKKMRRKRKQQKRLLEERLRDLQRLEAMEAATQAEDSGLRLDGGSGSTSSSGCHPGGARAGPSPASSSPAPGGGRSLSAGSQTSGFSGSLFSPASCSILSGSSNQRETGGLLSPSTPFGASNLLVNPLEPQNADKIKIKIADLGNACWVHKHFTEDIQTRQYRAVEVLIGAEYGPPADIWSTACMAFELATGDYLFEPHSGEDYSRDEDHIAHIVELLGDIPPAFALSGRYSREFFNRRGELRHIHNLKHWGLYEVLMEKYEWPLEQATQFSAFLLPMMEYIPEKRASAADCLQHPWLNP
various kinases (Homo sapiens, UniProt P07949, V804E), sequence (P07949 29-1114 V804E): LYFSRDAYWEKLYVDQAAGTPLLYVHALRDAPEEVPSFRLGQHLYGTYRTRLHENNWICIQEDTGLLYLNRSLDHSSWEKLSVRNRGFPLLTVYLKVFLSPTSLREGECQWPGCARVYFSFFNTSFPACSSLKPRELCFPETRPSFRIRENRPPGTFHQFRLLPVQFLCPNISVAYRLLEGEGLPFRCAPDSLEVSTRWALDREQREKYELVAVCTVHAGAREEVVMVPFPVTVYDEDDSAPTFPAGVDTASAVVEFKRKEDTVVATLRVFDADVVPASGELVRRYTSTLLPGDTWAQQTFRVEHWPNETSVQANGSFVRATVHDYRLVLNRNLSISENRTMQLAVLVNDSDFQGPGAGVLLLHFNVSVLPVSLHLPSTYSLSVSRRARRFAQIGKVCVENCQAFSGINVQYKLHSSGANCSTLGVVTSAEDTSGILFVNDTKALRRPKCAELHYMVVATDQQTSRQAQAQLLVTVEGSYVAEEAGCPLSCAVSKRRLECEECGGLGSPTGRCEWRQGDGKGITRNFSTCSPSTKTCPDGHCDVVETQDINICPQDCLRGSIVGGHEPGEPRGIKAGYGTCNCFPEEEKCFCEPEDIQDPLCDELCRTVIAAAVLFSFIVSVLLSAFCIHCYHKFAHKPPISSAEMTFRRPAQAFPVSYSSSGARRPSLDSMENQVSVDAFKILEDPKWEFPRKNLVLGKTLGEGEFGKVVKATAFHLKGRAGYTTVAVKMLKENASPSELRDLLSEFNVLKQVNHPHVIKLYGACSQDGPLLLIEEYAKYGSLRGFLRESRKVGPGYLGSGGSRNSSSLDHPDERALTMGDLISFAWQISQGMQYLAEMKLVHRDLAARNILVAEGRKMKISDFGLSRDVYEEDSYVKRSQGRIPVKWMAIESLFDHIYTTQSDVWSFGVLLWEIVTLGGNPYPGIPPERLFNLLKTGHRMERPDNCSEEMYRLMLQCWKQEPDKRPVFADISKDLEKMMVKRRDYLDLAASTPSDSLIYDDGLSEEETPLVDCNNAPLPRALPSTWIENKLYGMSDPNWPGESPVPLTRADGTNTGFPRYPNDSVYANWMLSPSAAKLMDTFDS
various kinases (Homo sapiens, UniProt Q13153), sequence (Q13153 whole entry): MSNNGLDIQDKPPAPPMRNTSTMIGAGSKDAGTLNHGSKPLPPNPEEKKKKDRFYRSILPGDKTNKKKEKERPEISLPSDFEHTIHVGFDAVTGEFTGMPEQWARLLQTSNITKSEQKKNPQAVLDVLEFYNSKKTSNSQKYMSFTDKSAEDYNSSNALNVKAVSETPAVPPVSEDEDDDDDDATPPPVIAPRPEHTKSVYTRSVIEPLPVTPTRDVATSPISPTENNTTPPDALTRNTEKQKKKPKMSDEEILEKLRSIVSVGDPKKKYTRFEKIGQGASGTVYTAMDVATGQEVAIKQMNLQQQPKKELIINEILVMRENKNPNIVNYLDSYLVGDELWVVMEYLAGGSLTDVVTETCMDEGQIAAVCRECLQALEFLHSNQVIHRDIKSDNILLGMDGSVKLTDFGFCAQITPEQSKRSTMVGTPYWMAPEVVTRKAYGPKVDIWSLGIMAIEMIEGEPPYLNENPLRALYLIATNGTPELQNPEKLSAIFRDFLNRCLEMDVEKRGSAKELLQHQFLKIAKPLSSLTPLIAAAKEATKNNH

COc1ccc2c(c1)[C@]1(C[C@H]1c1ccc3c(/C=C/c4ccc(CN5C[C@@H](C)O[C@@H](C)C5)cc4)n[nH]c3c1)C(=O)N2 [CFI-400945]
% Inhibition Average (various kinases [1]): 4%
% Inhibition Duplicate #1 (various kinases [1]): 5%
% Inhibition Duplicate #2 (various kinases [1]): 3%
% Inhibition Average (various kinases [2]): 3%
% Inhibition Duplicate #1 (various kinases [2]): 3%
% Inhibition Duplicate #2 (various kinases [2]): 3%
% Inhibition Average (various kinases [3]): 2%
% Inhibition Duplicate #1 (various kinases [3]): 0%
% Inhibition Duplicate #2 (various kinases [3]): 4%
% Inhibition (various kinases [4]): 12% and 18%
% Inhibition (various kinases [5]): 4% and 10%
% Inhibition Average (various kinases [6]): -1%
% Inhibition Duplicate #1 (various kinases [6]): -1%
% Inhibition Duplicate #2 (various kinases [6]): -2%
% Inhibition (various kinases [7]): 11% and 6%
% Inhibition Average (various kinases [8]): 2%
% Inhibition Duplicate #1 (various kinases [8]): 0%
% Inhibition Duplicate #2 (various kinases [8]): 4%
% Inhibition Average (various kinases [9]): 2%
% Inhibition Duplicate #1 (various kinases [9]): 2%
% Inhibition Duplicate #2 (various kinases [9]): 2%
% Inhibition (various kinases [10]): 2% and 0%
% Inhibition Average (various kinases [11]): 0%
% Inhibition Duplicate #1 (various kinases [11]): 0%
% Inhibition Duplicate #2 (various kinases [11]): 0%
% Inhibition Average (various kinases [12]): 11%
% Inhibition Duplicate #1 (various kinases [12]): 10%
% Inhibition Duplicate #2 (various kinases [12]): 12%
